# Source: publication PMC10866072, “Design, synthesis, molecular modelling and biological evaluation of novel 6-amino-5-cyano-2-thiopyrimidine derivatives as potent anticancer agents against leukemia and apoptotic inducers” (Journal of Enzyme Inhibition and Medicinal Chemistry, 2024)
# Experiments:
# CCRF-CEM = format: cell-based; details: one dose 10^-5 M, 48 h
# HL-60(TB) = format: cell-based; details: one dose 10^-5 M, 48 h
# K-562 = format: cell-based; details: one dose 10^-5 M, 48 h
# MOLT-4 = format: cell-based; details: one dose 10^-5 M, 48 h
# RPMI-8226 = format: cell-based; details: one dose 10^-5 M, 48 h
# SR = format: cell-based; details: one dose 10^-5 M, 48 h
# A549/ATCC = format: cell-based; details: one dose 10^-5 M, 48 h
# EKVX = format: cell-based; details: one dose 10^-5 M, 48 h
# HOP-62 = format: cell-based; details: one dose 10^-5 M, 48 h
# HOP-92 = format: cell-based; details: one dose 10^-5 M, 48 h
# NCI-H226 = format: cell-based; details: one dose 10^-5 M, 48 h
# NCI-H23 = format: cell-based; details: one dose 10^-5 M, 48 h
# NCI-H460 = format: cell-based; details: one dose 10^-5 M, 48 h
# NCI-H522 = format: cell-based; details: one dose 10^-5 M, 48 h
# COLO 205 = format: cell-based; details: one dose 10^-5 M, 48 h
# HCC-2998 = format: cell-based; details: one dose 10^-5 M, 48 h
# HCT-116 = format: cell-based; details: one dose 10^-5 M, 48 h
# HCT-15 = format: cell-based; details: one dose 10^-5 M, 48 h
# HT29 = format: cell-based; details: one dose 10^-5 M, 48 h
# KM12 = format: cell-based; details: one dose 10^-5 M, 48 h
# SW-620 = format: cell-based; details: one dose 10^-5 M, 48 h
# SF-268 = format: cell-based; details: one dose 10^-5 M, 48 h
# SF-295 = format: cell-based; details: one dose 10^-5 M, 48 h
# SF-539 = format: cell-based; details: one dose 10^-5 M, 48 h
# SNB-19 = format: cell-based; details: one dose 10^-5 M, 48 h
# U251 = format: cell-based; details: one dose 10^-5 M, 48 h
# LOX IMVI = format: cell-based; details: one dose 10^-5 M, 48 h
# MALME-3M = format: cell-based; details: one dose 10^-5 M, 48 h
# M14 = format: cell-based; details: one dose 10^-5 M, 48 h
# MDA-MB-435 = format: cell-based; details: one dose 10^-5 M, 48 h
# SK-MEL-2 = format: cell-based; details: one dose 10^-5 M, 48 h
# SK-MEL-28 = format: cell-based; details: one dose 10^-5 M, 48 h
# SK-MEL-5 = format: cell-based; details: one dose 10^-5 M, 48 h
# UACC-257 = format: cell-based; details: one dose 10^-5 M, 48 h
# UACC-62 = format: cell-based; details: one dose 10^-5 M, 48 h
# IGROV1 = format: cell-based; details: one dose 10^-5 M, 48 h
# OVCAR-3 = format: cell-based; details: one dose 10^-5 M, 48 h
# OVCAR-4 = format: cell-based; details: one dose 10^-5 M, 48 h
# OVCAR-5 = format: cell-based; details: one dose 10^-5 M, 48 h
# OVCAR-8 = format: cell-based; details: one dose 10^-5 M, 48 h
# NCI/ADR-RES = format: cell-based; details: one dose 10^-5 M, 48 h
# SK-OV-3 = format: cell-based; details: one dose 10^-5 M, 48 h
# 786-0 = format: cell-based; details: one dose 10^-5 M, 48 h
# A498 = format: cell-based; details: one dose 10^-5 M, 48 h
# ACHN = format: cell-based; details: one dose 10^-5 M, 48 h
# CAKI-1 = format: cell-based; details: one dose 10^-5 M, 48 h
# RXF 393 = format: cell-based; details: one dose 10^-5 M, 48 h
# SN12C = format: cell-based, human; details: one dose 10^-5 M, 48 h
# TK-10 = format: cell-based; details: one dose 10^-5 M, 48 h
# UO-31 = format: cell-based; details: one dose 10^-5 M, 48 h
# PC-3 = format: cell-based; details: one dose 10^-5 M, 48 h
# DU-145 = format: cell-based; details: one dose 10^-5 M, 48 h
# MCF7 = format: cell-based; details: one dose 10^-5 M, 48 h
# MDA-MB-231/ATCC = format: cell-based; details: one dose 10^-5 M, 48 h
# HS 578T = format: cell-based; details: one dose 10^-5 M, 48 h; HS 578T
# BT-549 = format: cell-based; details: one dose 10^-5 M, 48 h
# T-47D = format: cell-based; details: one dose 10^-5 M, 48 h
# MDA-MB-468 = format: cell-based; details: one dose 10^-5 M, 48 h
# [1] = tested on: full NCI 60 cell lines panel; details: for activity on all 60 cancer cell lines tested (in words): one dose; for Mean % growth: one dose 10^-5 M, 48 h, mean over all cell lines
substance,measurement,setting,value
"3-Amino-4–(2,4-dichlorophenyl)-1H-pyrazolo[3,4-d] pyrimidine-6-thiol [Compound 3c]",% growth,CCRF-CEM,94.56%
same,% growth,HL-60(TB),89.08%
same,% growth,K-562,105.30%
same,% growth,MOLT-4,90.06%
same,% growth,RPMI-8226,108.63%
same,% growth,SR,97.30%
same,% growth,A549/ATCC,104.45%
same,% growth,EKVX,115.88%
same,% growth,HOP-62,92.49%
same,% growth,HOP-92,76.20%
same,% growth,NCI-H226,106.10%
same,% growth,NCI-H23,103.34%
same,% growth,NCI-H460,115.81%
same,% growth,NCI-H522,95.34%
same,% growth,COLO 205,120.01%
same,% growth,HCC-2998,103.06%
same,% growth,HCT-116,112.94%
same,% growth,HCT-15,111.27%
same,% growth,HT29,110.65%
same,% growth,KM12,104.75%
same,% growth,SW-620,106.47%
same,% growth,SF-268,108.35%
same,% growth,SF-295,94.52%
same,% growth,SF-539,94.60%
same,% growth,SNB-19,93.39%
same,% growth,U251,103.99%
same,% growth,LOX IMVI,106.21%
same,% growth,MALME-3M,92.32%
same,% growth,M14,106.66%
same,% growth,MDA-MB-435,110.71%
same,% growth,SK-MEL-2,108.60%
same,% growth,SK-MEL-28,115.84%
same,% growth,SK-MEL-5,108.42%
same,% growth,UACC-257,107.51%
same,% growth,UACC-62,93.81%
same,% growth,IGROV1,105.59%
same,% growth,OVCAR-3,109.08%
same,% growth,OVCAR-4,105.05%
same,% growth,OVCAR-5,108.30%
same,% growth,OVCAR-8,109.69%
same,% growth,NCI/ADR-RES,114.09%
same,% growth,SK-OV-3,86.72%
same,% growth,786-0,100.98%
same,% growth,A498,125.09%
same,% growth,ACHN,106.88%
same,% growth,CAKI-1,96.86%
same,% growth,RXF 393,114.73%
same,% growth,SN12C,105.03%
same,% growth,TK-10,146.75%
same,% growth,UO-31,85.75%
same,% growth,PC-3,96.81%
same,% growth,DU-145,119.84%
same,% growth,MCF7,95.64%
same,% growth,MDA-MB-231/ATCC,94.87%
same,% growth,HS 578T,100.24%
same,% growth,BT-549,100.27%
same,% growth,T-47D,92.59%
same,% growth,MDA-MB-468,110.26%
same,activity on all 60 cancer cell lines tested (in words),[1],weak activity
same,Mean % growth,[1],104.17%
"4-Amino-6–(2,4-dichlorophenyl)-2-mercaptopyrimidine-5-carboximidohydrazide [Compound 2c]",% growth,CCRF-CEM,75.32%
same,% growth,HL-60(TB),57.91%
same,% growth,K-562,91.24%
same,% growth,MOLT-4,94.43%
same,% growth,RPMI-8226,87.93%
same,% growth,SR,69.30%
same,% growth,A549/ATCC,89.50%
same,% growth,EKVX,83.88%
same,% growth,HOP-62,95.11%
same,% growth,HOP-92,71.67%
same,% growth,NCI-H226,90.50%
same,% growth,NCI-H23,95.68%
same,% growth,NCI-H460,89.85%
same,% growth,NCI-H522,68.80%
same,% growth,COLO 205,100.56%
same,% growth,HCC-2998,108.77%
same,% growth,HCT-116,85.00%
same,% growth,HCT-15,92.01%
same,% growth,HT29,89.84%
same,% growth,KM12,100.35%
same,% growth,SW-620,87.86%
same,% growth,SF-268,104.49%
same,% growth,SF-295,93.63%
same,% growth,SF-539,85.28%
same,% growth,SNB-19,86.22%
same,% growth,U251,103.26%
same,% growth,LOX IMVI,86.57%
same,% growth,MALME-3M,94.17%
same,% growth,M14,95.64%
same,% growth,MDA-MB-435,96.41%
same,% growth,SK-MEL-2,95.39%
same,% growth,SK-MEL-28,109.76%
same,% growth,SK-MEL-5,97.76%
same,% growth,UACC-257,102.94%
same,% growth,UACC-62,84.96%
same,% growth,IGROV1,104.68%
same,% growth,OVCAR-3,104.96%
same,% growth,OVCAR-4,82.22%
same,% growth,OVCAR-5,98.09%
same,% growth,OVCAR-8,94.00%
same,% growth,NCI/ADR-RES,103.23%
same,% growth,SK-OV-3,94.00%
same,% growth,786-0,90.40%
same,% growth,A498,105.32%
same,% growth,ACHN,76.09%
same,% growth,CAKI-1,83.79%
same,% growth,RXF 393,94.62%
same,% growth,SN12C,91.26%
same,% growth,TK-10,111.85%
same,% growth,UO-31,71.44%
same,% growth,PC-3,77.58%
same,% growth,DU-145,107.65%
same,% growth,MCF7,79.62%
same,% growth,MDA-MB-231/ATCC,77.09%
same,% growth,HS 578T,99.16%
same,% growth,BT-549,81.84%
same,% growth,T-47D,73.88%
same,% growth,MDA-MB-468,90.16%
same,activity on all 60 cancer cell lines tested (in words),[1],weak activity
same,Mean % growth,[1],90.71%
